This is an account of results in patent US20030158204A1, “Diamino phenothiazine derivatives and composition comprising same” (priority 2000, published 2003).

The structures appear in SMILES notation.

A short description of data set [1]: Hydrophilicity / water solubility. Conditions: qualitative. It is filed as physicochemical. Here is the method: These derivatives more or less have the properties of methylene blue, are hydrosoluble, active by the enteral and parenteral route (IV, SC, etc.) and they never give rise to acute or chronic toxicity nor undesirable effects, at doses comprised between 0.05 mg/Kg and 40 mg/Kg.

A short description of data set [2]: Half life of the compound. Particulars: qualitative.
For data set [3], the system named is pernicious attacks resistant to quinine (malaria). Particulars: IV route; cited from earlier work.
The conditions of data set [4]: used externally and internally; cited from earlier work.

As to `CNc1ccc2nc3c(Cl)cc(N(C)C)cc3[s+]c2c1C` [Example 2], in data set [1], the hydrophilicity entry is recorded as “more hydrophilic than the reference daughter molecule”. The half life result in data set [2] is recorded as “considerably increases the half life”.

For `CNc1ccc2nc3c(C)cc(N(C)C)cc3[s+]c2c1C` [Example 1, 4-5 dimethyl-7-(dimethylamino)-3(methylimino)-3H phenothiazine], the hydrophilicity entry in data set [1] is on record as “decreased hydrophilicity”.

Turning to `CN(C)c1ccc2nc3ccc(=[N+](C)C)cc-3sc2c1` [Methylene blue, methylene blue], the “activity on pernicious attacks resistant to quinine” value in data set [3] is listed as “active”. For the same compound, in data set [4], the antiseptic activity result was “moderate”. On to `CNc1ccc2nc3c(O)cc(N(C)C)cc3[s+]c2c1O` [Example 4], for which, in data set [1], the hydrophilicity result is recorded as “very hydrophilic”. Besides, the half life result in data set [2] is “short half life”.
